Laboratory results as given in patent US10131681B2, “Aminophosphinic derivatives that can be used in the treatment of pain” (PHARMALEADS, priority 2008, dated 2018).

How the values were obtained:
OF1 male mice [1] = assay: Plantar test, thermal hyperalgesia after partial ligation of the sciatic nerve; assay type: in vivo; details: 50 mg/kg oral
Procedure: (§1) This test was described in detail by A. B. Malmberg and A. I. Basbaum, Partial Sciatic nerve injury in the mouse as a model of neuropathic pain: behavioural and neuroanatomical correlates. Pain, (1998) 76, 215-222.
(§2) It was performed on OF1 male mice (Charles River, n=39), weighing 18 to 20 g, by partial ligation of the sciatic nerve on the ipsilateral side. The animals are tested over a period of 3 to 26 days after the operation.
The hyperalgesia was measured according to the method described by K. Hargreaves et al., A new sensitive method for measuring thermal nociception in cutaneous hyperalgesia, Pain (1988), 32, 77-88, using the “Plantar test” device (Bioseb, France) as the heat source. The intensity of the nociceptive stimulus is calibrated at 8-10 s with an automatic cut-off time of 20 seconds. The mean heat-induced paw withdrawal was measured on the ipsilateral (damaged nerve) and contralateral (intact nerve) paws. Each measurement is made 3 times on each paw.

OF1 male mice [2] = assay: Von Frey test, mechanical allodynia after partial ligation of the sciatic nerve; assay type: in vivo
Procedure: as §1, §2
The mechanical allodynia is measured as described by S. R. Chaplan et al., Quantitative assessment of tactile allodynia in the rat paw, J. Neurosci. Meth. (1994), 53, 55-63. The ipsilateral (lesion) and contralateral (control) paws are tested as above, the mechanical anti-allodynia effect being measured using the Von Frey method (Malmerg A. B. and Basbaum A. I., 1998, Pain, 76, 215-222) with filaments of increasing size likewise applying an increasing pressure.

OF1 male mice [3] = assay: Formalin test (phase I), paw licking after oral administration; assay type: in vivo
Procedure: A/ Formalin Test (Phase I)
The molecules were studied at one time (90 min) for comparative tests and at two times, 90 and 150 minutes, so as to observe the period of action thereof.
The animals (OF1 male mice) were obtained from the Charles River breeding centre (France) and weighed […] at the start of the experiment. The weight of each mouse is taken into account for the administration of the product.
The test is based on the protocol described by S. HUNSKAAR et al., Formalin test in mice, a useful technique for evaluating mild analgesics, J. Neurosci. Methods (1995), 14, 69-75. The early part of the test ([…] after injecting formalin), is considered to reflect […], which is under study.
The mice (n=8) are placed individually in a transparent container (50×25 cm^2) and are acclimatised to this environment for 20 minutes. […] Each mouse is then immediately returned to the test container and pain (nociceptive) responses are measured for 5 minutes (early phase). Only the number of times the paw is licked is counted. […]
The analgesic action of the product is measured by the decline in the number of times the injured paw is licked, compared to the number of times the animal receiving the vehicle only licks its paw. The total (discontinuous) licking time, expressed in seconds for each mouse, is counted for […]. […]

[4] = Stability in solution of a prior art pro-drug in a parenteral vehicle, followed by HPLC; assay type: physicochemical; details: ethanol/cremophor/H2O mixture (1:1:8)
Procedure: The study in solution of a compound according to the prior art was conducted as follows:
The compound according to the prior art is placed in solution in various mixtures used for parenteral administration, the solution subsequently being followed by HPLC (Kromasil C18 4.5*250 mm column, 50% CH3CN (0.1% TFA)/50% H2O (0.1% TFA)) to determine the composition of the solution. In any case, the formation of both products, free phosphonic acid (active compound) and the transfer product, is observed over time as illustrated in the diagram below: […]

Compound: CC(OC(=O)N[C@@H](C)P(=O)(O)C[C@@H](Cc1ccc(-c2ccccc2)cc1)C(=O)N[C@@H](C)C(=O)OCc1ccccc1)OC(=O)C(C)C (some centres unmarked) [Example 3, 2-(2-biphenyl-4-ylmethyl-3-{hydroxy-[1-(1-isobutyryloxy-ethoxycarbonylamino)-ethyl]-phosphinoyl}-propionylamino)-propionic acid benzyl ester]
- time of peak anti-hyperalgesia effect (OF1 male mice [1]): 90 min
- paw withdrawal, mean of contralateral paws (OF1 male mice [1]; 90 min, 14 days after surgery, contralateral paw): 9.4 s
- reduction in thermal hyperalgesia (OF1 male mice [1]; period 45-120 min, ipsilateral paw): 65-100%
- time of peak anti-allodynia effect (OF1 male mice [2]; 50 mg/kg oral): 60 min
- long-term anti-allodynia effect (OF1 male mice [2]; 50 mg/kg oral, 45-120 min): significant
- anti-allodynia effect at peak, % of the peak response (untreated control) (OF1 male mice [2]; 50 mg/kg oral, 60 min): 75%

Compound: CC(OC(=O)N[C@@H](C)P(=O)(O)C[C@@H](Cc1ccc(-c2ccccc2)cc1)C(=O)N[C@@H](C)C(=O)O)OC(=O)C(C)C (some centres unmarked) [Example 4, 2-(2-biphenyl-4-ylmethyl-3-{hydroxy-[1-(1-isobutyryloxy-ethyloxycarbonylamino)-ethyl]-phosphinoyl}-propionylamino)-propionic acid]
- anti-allodynia effect used alone (OF1 male mice [2]; 10 mg/kg oral, 60 min): inactive

Compound: CCOC(=O)OC(C)OC(=O)[C@H](C)NC(=O)[C@H](Cc1ccc(-c2ccccc2)cc1)CP(=O)(O)[C@H](C)NC(=O)OC(C)OC(=O)C(C)C (some centres unmarked) [Example 8, 2-(2-biphenyl-4-ylmethyl-3-{hydroxy-[1-(1-isobutyryloxy-ethoxycarbonylamino)-ethyl]-phosphinoyl}-propionylamino)-propionic acid 1-ethoxycarbonyloxyethyl ester]
- analgesic activity at 90 minutes (OF1 male mice [3]; 50 mg/kg per os): very significant analgesic activity

Compound: NCC1(CC(=O)O)CCCCC1 [gabapentin, reference compound]
- anti-allodynia effect used alone (OF1 male mice [2]; 30 mg/kg oral, 60 min): inactive

Compound: CCOC(=O)[C@H](C)NC(=O)[C@H](Cc1ccc(-c2ccccc2)cc1)CP(=O)(OC(C)OC(=O)C(C)C)[C@H](C)N (some centres unmarked) [prior art compound]
- % initial compound ([4]; 0 hrs after solubilisation): 90.5%
- % initial compound ([4]; 3 hrs after solubilisation): 82.0%
- % initial compound ([4]; 6 hrs after solubilisation): 75.7%
- % initial compound ([4]; 96 hrs after solubilisation): 25.1%

Compound: CCOC(=O)OC(C)OC(=O)[C@H](C)NC(=O)[C@H](Cc1ccc(-c2ccccc2)cc1)CP(=O)(O)[C@H](C)N.O=CO (some centres unmarked) [reference molecule, reference compound]
- analgesic activity at 90 minutes (OF1 male mice [3]; 100 mg/kg per os): no activity
